The values below come from PMC6784244 (Toxins, 2019).

Each structure is given as a SMILES string. In brackets after ≈: the same amount, converted by molar mass. Several values for one entry are separate records, joined by “and”; a condition that tells them apart may be missing. Equal entries are not always repeated.

The conditions of data set [1]: lipid monolayer at air-water interface on PBS pH 7.4, peptide 1 µM, initial pressure 10-30 mN/m, extrapolated to delta pressure 0. The method, then:
Peptide–lipid interaction was evaluated using reconstituted lipid monolayer at the air–water interface as previously described. Pure prokaryotic and eukaryotic lipids used were: POPC (1-palmitoyl-2-oleoyl-glycero-3-phosphocholine), POPE (1-palmitoyl-2-oleoyl-sn-glycero-3-phosphoethanolamine), POPG (1-palmitoyl-2-oleoyl-sn-glycero-3-phospho-(1’-rac-glycerol), and cardiolipin, all from Avanti Polar Lipid (Alabama, USA). LTA (Lipoteichoic acid from B. subtilis) was obtained from Invivogen SAS (Toulouse, France). Pure lipids were reconstituted in chloroform:methanol (2:1, v:v) at 1 mg/mL and stored at −20 °C under nitrogen. The interaction and insertion of the ENN and BEA into lipids were evaluated through the measurement of their critical pressure of insertion as previously described. Briefly, lipids were spread using a 50 µL Hamilton’s syringe at the surface of 800 µL of sterile PBS creating a lipid monolayer at the air–water interface. Lipids were added until the surface pressure reached the desired value. After 5–10 min of incubation allowing evaporation of the solvent and stabilization of the initial surface pressure, 8 µL of ENN or BEA diluted in sterile PBS at 100 µM were injected into the 800 µL sub-phase of PBS under the lipid monolayer (pH 7.4, volume 800 µL) using a 10 µL Hamilton syringe giving a final concentration of peptides of 1 µM, preliminary experiments having shown that this concentration gave optimal insertion. The variation of the surface pressure caused by peptide injection was then continuously monitored using a fully automated microtensiometer (µTROUGH SX, Kibron Inc., Helsinki, Finland) until reaching equilibrium (maximal surface pressure increase being usually obtained after 15–25 min). The critical pressure of insertion of each peptide was determined by changing the initial pressure of lipid monolayer (from 10 and 30 mN/m) and measuring the variation of pressure caused by the insertion of the peptide. The critical pressure of insertion of each peptide in a particular lipid was determined graphically and calculated as the theoretical value of initial pressure of lipid monolayer not permissive to peptide insertion, i.e., causing a variation of pressure equal to 0 mN/m.

Data set [2] has as its system Escherichia coli (ATCC 8739).
The test system of data set [3] is Mycobacterium smegmatis (mc2155, ATCC 700084). The settings on record: mc2155, 72 h.
For data set [4], the system named is Aspergillus flavus (DSMZ 1959). The settings on record: DSMZ 1959, pH 7.
In data set [5] the test system is Acinetobacter baumannii (CIP 110431).
Data set [6] concerns N87 (human gastric cell line). To be noted: 48 h.
The subject of data set [7] is F. verticillioides (DSMZ 62264). The settings on record: DSMZ 62264, pH 7.
Data set [8] relates to C. perfringens. The class given is cell-based, Clostridium perfringens.
In data set [9] the test system is F. oxysporum (DSMZ 62316). The settings on record: DSMZ 62316, pH 7.
Data set [10] has as its system Fusarium graminearum (DSMZ 1095). To be noted: DSMZ 1095, pH 7.
The subject of another data set is human erythrocytes. To be noted: pH 7.4.
The test system of data set [11] is Vancomycin-resistant Enterococcus faecalis (DSMZ 13591).
In data set [12] the test system is Staphylococcus aureus (ATCC CRM-6538P).
The subject of data set [13] is Helicobacter pylori (ATCC 43504).
Data set [14] concerns Candida albicans (DSMZ 10697). To be noted: DSMZ 10697, 24 h, pH 7.
A further data set deals with A. niger (ATCC 9142). To be noted: ATCC 9142, pH 7.
In a further data set the test system is A. ochraceus (DSMZ 824). To be noted: DSMZ 824, pH 7.
The subject of data set [15] is Penicillium verrucosum (DSMZ 12639). To be noted: DSMZ 12639, pH 7.
In data set [16] the test system is C. perfringens. In kind it is cell-based, Clostridium perfringens. The source holds these as a separate data set.

What is called IC50 is the midpoint of a concentration-inhibition curve. A high value points to a need for much substance. Regarding `CC[C@H](C)[C@H]1C(=O)O[C@H](C(C)C)C(=O)N(C)[C@@H]([C@@H](C)CC)C(=O)O[C@H](C(C)C)C(=O)N(C)[C@@H](C(C)C)C(=O)O[C@H](C(C)C)C(=O)N1C` [ENN A1], in [1], the “critical pressure of insertion, POPC” value was 38.06 mN/m and the “critical pressure of insertion, POPE” value was 34.38 mN/m. The “MIC, E. coli” value in data set [2] is recorded as more than 100 µM. Besides, the “MIC, M. smegmatis” value in data set [3] turned out to be 3.12 µM (≈ 2.08 µg/mL). In [4], the “MIC, A. flavus” value is on record as more than 100 µM. Also, the “MIC, A. baumannii” value in data set [5] was more than 100 µM. Half-maximal inhibition in data set [6] (IC50) required 3 ± 2 nM. In data set [7], the “MIC, F. verticillioides” value is on record as more than 100 µM. In the data set with C. perfringens [8], the “membrane depolarization at 100 µM” value stood at 97.4 ± 5.3% and the “membrane depolarization at four times their MIC” value amounted to 75.3 ± 2.0%. In data set [9], the “MIC, F. oxysporum” value was more than 100 µM. For the same compound, in data set [10], the “MIC, F. graminearum” value stood at 50 µM (≈ 33.4 µg/mL). The “HC50 (dose causing 50% hemolysis), Erythrocytes” value in the data set with human erythrocytes was 162.7 ± 22.8 µM. Moreover, the “MIC, E. faecalis” value in data set [11] is 6.25 µM (≈ 4.17 µg/mL). The “MIC, S. aureus” value in data set [12] fell in the range of 12.5 to 25 µM. For the same compound, the “MIC, H. pylori” value in [13] is reported as more than 100 µM. Moreover, the “MIC, C. albicans” value in [14] is reported as 1.5 µM (≈ 1 µg/mL). Besides, the “MIC, A. niger” value with A. niger (ATCC 9142) is recorded as more than 100 µM. Further, the “MIC, A. ochraceus” value against A. ochraceus (DSMZ 824) was more than 100 µM. For the same compound, in data set [15], the “MIC, P. verrucosum” value is recorded as more than 100 µM.
As for `CC[C@H](C)[C@H]1C(=O)O[C@H](C(C)C)C(=O)N(C)[C@@H]([C@@H](C)CC)C(=O)O[C@H](C(C)C)C(=O)N(C)[C@@H]([C@@H](C)CC)C(=O)O[C@H](C(C)C)C(=O)N1C` [ENN A], in data set [1], the “critical pressure of insertion, POPC” value is reported as 40.28 mN/m and the “critical pressure of insertion, POPE” value is 38.12 mN/m. Moreover, the “MIC, E. coli” value in [2] is listed as more than 100 µM. Also, in data set [3], the “MIC, M. smegmatis” value is given as 6.25 µM (≈ 4.26 µg/mL). The “MIC, A. flavus” value in data set [4] is given as more than 100 µM. Moreover, the “MIC, A. baumannii” value in [5] is recorded as more than 100 µM. Besides, the IC50 in data set [6] amounted to 10 ± 10 nM. For the same compound, in data set [7], the “MIC, F. verticillioides” value is more than 100 µM. Further, in the data set on C. perfringens [8], the “membrane depolarization at 100 µM” value is reported as 108.9 ± 7.3% and the “membrane depolarization at four times their MIC” value amounted to 80.8 ± 3.2%. Also, the “MIC, F. oxysporum” value in data set [9] is listed as more than 100 µM. The “MIC, F. graminearum” value in data set [10] is 25 µM (≈ 17 µg/mL). Moreover, the “HC50 (dose causing 50% hemolysis), Erythrocytes” value in the data set on human erythrocytes is reported as 68.7 µM. Also, in data set [11], the “MIC, E. faecalis” value is 3.12 µM (≈ 2.13 µg/mL). Also, the “MIC, S. aureus” value in [12] fell in the range of 6.25 to 12.5 µM. For the same compound, the “MIC, H. pylori” value in data set [13] was more than 100 µM. For the same compound, the “MIC, C. albicans” value in data set [14] is 1.5 µM (≈ 1.02 µg/mL). Also, in the data set on A. niger (ATCC 9142), the “MIC, A. niger” value is more than 100 µM. Besides, in the data set with C. perfringens [16], the “percentage of membrane permeabilization at 100 µM, 120 min” value is 37.1 ± 6.7% and the “percentage of permeabilization at four times the MIC” value is 7.2 ± 2.5%. Besides, in the data set with A. ochraceus (DSMZ 824), the “MIC, A. ochraceus” value is reported as more than 100 µM. Also, in [15], the “MIC, P. verrucosum” value is listed as more than 100 µM.
In the case of `CC[C@H](C)[C@H]1C(=O)O[C@H](C(C)C)C(=O)N(C)[C@@H](C(C)C)C(=O)O[C@H](C(C)C)C(=O)N(C)[C@@H](C(C)C)C(=O)O[C@H](C(C)C)C(=O)N1C` [ENN B1], in [1], the “critical pressure of insertion, POPC” value is 36.19 mN/m and the “critical pressure of insertion, POPE” value was 31.87 mN/m. Also, in data set [2], the “MIC, E. coli” value is more than 100 µM. Further, the “MIC, M. smegmatis” value in [3] stood at 6.25 µM (≈ 4.09 µg/mL). In data set [4], the “MIC, A. flavus” value is recorded as more than 100 µM. In addition, the “MIC, A. baumannii” value in [5] was more than 100 µM. Moreover, in data set [6], the midpoint of inhibition, the IC50, lay at 8 ± 8 nM. Also, in data set [7], the “MIC, F. verticillioides” value is recorded as more than 100 µM. Moreover, in the data set on C. perfringens [8], the “membrane depolarization at 100 µM” value amounted to 97.6 ± 9.1%; the “membrane depolarization at four times their MIC” value is 68.0 ± 4.3%; the “membrane depolarization at their MIC” value was 47.4 ± 4.6% and 30–40%. For the same compound, the “MIC, F. oxysporum” value in data set [9] is given as more than 100 µM. Also, the “MIC, F. graminearum” value in [10] amounted to 25 µM (≈ 16.3 µg/mL). Further, the “HC50 (dose causing 50% hemolysis), Erythrocytes” value in the data set on human erythrocytes is 356.4 ± 59.3 µM. Also, the “MIC, E. faecalis” value in [11] amounted to 12.5 µM (≈ 8.17 µg/mL). Moreover, in data set [12], the “MIC, S. aureus” value is listed as 25 µM (≈ 16.3 µg/mL). In addition, the “MIC, H. pylori” value in [13] is recorded as more than 100 µM. The “MIC, C. albicans” value in data set [14] turned out to be 3.12 µM (≈ 2.04 µg/mL). Further, the “MIC, A. niger” value in the data set on A. niger (ATCC 9142) is more than 100 µM. In addition, in the data set with A. ochraceus (DSMZ 824), the “MIC, A. ochraceus” value was more than 100 µM. In [15], the “MIC, P. verrucosum” value is recorded as more than 100 µM.
For the compound `CC(C)[C@H]1C(=O)O[C@H](C(C)C)C(=O)N(C)[C@@H](C(C)C)C(=O)O[C@H](C(C)C)C(=O)N(C)[C@@H](C(C)C)C(=O)O[C@H](C(C)C)C(=O)N1C` [ENN B], in [1], the “critical pressure of insertion, POPC” value is reported as 32.92 mN/m and the “critical pressure of insertion, POPE” value is 30.15 mN/m. Besides, the “MIC, E. coli” value in data set [2] is given as more than 100 µM. In data set [3], the “MIC, M. smegmatis” value was found to be 100 µM (≈ 64 µg/mL). For the same compound, in data set [4], the “MIC, A. flavus” value is given as more than 100 µM. The “MIC, A. baumannii” value in data set [5] is more than 100 µM. In data set [6], this compound registered an IC50 of 1700 ± 100 nM. The “MIC, F. verticillioides” value in [7] was more than 100 µM. In the data set with C. perfringens [8], the “membrane depolarization at 100 µM” value amounted to 44.9 ± 8.7%; the “membrane depolarization at four times their MIC” value is listed as 44.2 ±1.8%; the “membrane depolarization at their MIC” value was 36.4 ± 3.8% and 30–40%. Further, the “MIC, F. oxysporum” value in [9] was more than 100 µM. Also, the “MIC, F. graminearum” value in data set [10] is recorded as more than 100 µM. In addition, the “HC50 (dose causing 50% hemolysis), Erythrocytes” value in the data set on human erythrocytes worked out at 534.5 µM. For the same compound, the “MIC, E. faecalis” value in data set [11] is recorded as more than 100 µM. Further, the “MIC, S. aureus” value in [12] is reported as more than 100 µM. Also, the “MIC, H. pylori” value in data set [13] was more than 100 µM. Besides, the “MIC, C. albicans” value in data set [14] was 6.25 µM (≈ 4 µg/mL). For the same compound, the “MIC, A. niger” value in the data set with A. niger (ATCC 9142) was more than 100 µM. Also, the “percentage of membrane permeabilization at 100 µM, 120 min” value in the data set with C. perfringens [16] is listed as 19.6 ± 7.9%. In addition, the “MIC, A. ochraceus” value against A. ochraceus (DSMZ 824) is on record as more than 100 µM. Also, the “MIC, P. verrucosum” value in data set [15] is more than 100 µM.
